In PubChem BioAssay AID310 (DTP/NCI, 2004):
Several values for one entry are separate records, joined by “and”; a condition that tells them apart may be missing. Equal values may be shown once. Inconclusive results are not listed.

Tested on: C3AKF1 mice, osteogenic sarcoma HE10734 s.c., tumor weight T/C
Assay: NCI In Vivo Anticancer Drug Screen. Data for tumor model Osteogenic Sarcoma HE 10734 (subcutaneous) in C3AKF1 (CHKRF1) mice
Conditions: endpoint: mean tumor weight, schedule: Q01DX010 (ip), higher = larger tumour
Protocol: The antitumor activity of compounds was measured in mice bearing transplantable tumors. Survival or tumor size were measured and the results are expressed as the measurement made in the treated group (T) divided by the measurement made in the vehicle treated control group (C). The tumor model used in this assay is Osteogenic Sarcoma HE 10734 (subcutaneous) in C3AKF1 (CHKRF1) mice

[1] = dose: 125.0 mg/kg/injection, vehicle: carboxymethylcellulose (CMC)
[2] = dose: 500.0 mg/kg/injection, vehicle: carboxymethylcellulose (CMC)
[3] = dose: 100.0 mg/kg/injection, vehicle: saline
[4] = dose: 200.0 mg/kg/injection, vehicle: saline
[5] = dose: 50.0 mg/kg/injection, vehicle: saline
[6] = dose: 25.0 mg/kg/injection, vehicle: saline

## COc1ccc(-c2c(CC(=O)O)c3cc(OC)ccc3n2Cc2ccc(Cl)cc2)cc1
[1]
  T/C: 116 % of control
dose: 250.0 mg/kg/injection, vehicle: carboxymethylcellulose (CMC)
  T/C: 66 % of control
[2]
  T/C: 54 % of control
dose: 1000.0 mg/kg/injection, vehicle: carboxymethylcellulose (CMC)
  T/C: 56 % of control

## CCCCSc1nc(N)nc2c1ncn2CC(C)CC (configuration not stated)
[3]
  T/C: 109 % of control
[4]
  T/C: 57 % of control

## O=c1[nH]c2cc(Cl)c(Cl)cc2o1
dose: 10.0 mg/kg/injection, vehicle: carboxymethylcellulose (CMC)
  T/C: 84 % of control
dose: 16.0 mg/kg/injection, vehicle: carboxymethylcellulose (CMC)
  T/C: 113 % of control
dose: 24.0 mg/kg/injection, vehicle: carboxymethylcellulose (CMC)
  T/C: 74 % of control
dose: 37.0 mg/kg/injection, vehicle: carboxymethylcellulose (CMC)
  T/C: 105 % of control and 117 % of control
dose: 55.0 mg/kg/injection, vehicle: carboxymethylcellulose (CMC)
  T/C: 80 % of control
dose: 85.0 mg/kg/injection, vehicle: carboxymethylcellulose (CMC)
  T/C: 98 % of control

## ClCCn1cnc2c(SCc3ccccc3Cl)ncnc21
[5]
  T/C: 72 % of control
[3]
  T/C: 56 % of control
[4]
  T/C: 35 % of control

## CSc1ncnc2c1ncn2C1CCCO1 (configuration not stated)
dose: 20.0 mg/kg/injection, vehicle: saline
  T/C: 76 % of control
dose: 40.0 mg/kg/injection, vehicle: saline
  T/C: 83 % of control
dose: 160.0 mg/kg/injection, vehicle: saline
  T/C: 44 % of control

## CCCn1cnc2c(SCc3ccccc3Cl)nc(N)nc21
dose: 100.0 mg/kg/injection, vehicle: carboxymethylcellulose (CMC)
  T/C: 86 % of control
dose: 200.0 mg/kg/injection, vehicle: carboxymethylcellulose (CMC)
  T/C: 87 % of control
dose: 400.0 mg/kg/injection, vehicle: carboxymethylcellulose (CMC)
  T/C: 55 % of control

## O=P1(N(CCCl)CCCl)NCCCO1 (configuration not stated)
dose: 3.6 mg/kg/injection, vehicle: saline
  T/C: 172 % of control
dose: 5.5 mg/kg/injection, vehicle: saline
  T/C: 151 % of control
dose: 8.3 mg/kg/injection, vehicle: saline
  T/C: 93 % of control
[6]
  T/C: 22 % of control
[5]
  T/C: 5 % of control
[3]
  T/C: 2 % of control

## CCCCCCCCCCCCCS
[6]
  T/C: 76 % of control
[5]
  T/C: 87 % of control
[3]
  T/C: 82 % of control
[4]
  T/C: 89 % of control

## CCN(CC)Cc1cc(Nc2c3ccccc3nc3cc(Cl)ccc23)ccc1O
dose: 12.5 mg/kg/injection, vehicle: saline
  T/C: 78 % of control
[6]
  T/C: 111 % of control
[5]
  T/C: 70 % of control

## S=C(N=Nc1ccccc1)NNc1ccccc1
dose: 45.0 mg/kg/injection, vehicle: carboxymethylcellulose (CMC)
  T/C: 95 % of control
dose: 65.0 mg/kg/injection, vehicle: carboxymethylcellulose (CMC)
  T/C: 49 % of control

## CS(=O)(=O)OC[C@@H](O)[C@@H](O)COS(C)(=O)=O
dose: 62.5 mg/kg/injection, vehicle: carboxymethylcellulose (CMC)
  T/C: 88 % of control
[1]
  T/C: 53 % of control and 74 % of control
[2]
  T/C: 92 % of control and 109 % of control

## CC(CCc1cccc2ccccc12)(C(=O)O)C(=O)O
dose: 35.0 mg/kg/injection, vehicle: saline
  T/C: 68 % of control
[5]
  T/C: 157 % of control

## Fc1ccc(CSc2ncnc3c2ncn3C2CCCCO2)cc1 (configuration not stated)
dose: 62.0 mg/kg/injection, vehicle: saline
  T/C: 81 % of control
dose: 125.0 mg/kg/injection, vehicle: saline
  T/C: 71 % of control
dose: 250.0 mg/kg/injection, vehicle: saline
  T/C: 93 % of control
dose: 500.0 mg/kg/injection, vehicle: saline
  T/C: 28 % of control

## CCCCCCCCCCCCCCCCC(C(=O)O)C(O)(CC(=O)O)C(=O)O (configuration not stated)
dose: 22.0 mg/kg/injection, vehicle: carboxymethylcellulose (CMC)
  T/C: 100 % of control
dose: 35.0 mg/kg/injection, vehicle: carboxymethylcellulose (CMC)
  T/C: 68 % of control
